The text below walks through data of US6962909B2, “Treatment of neovascularization disorders with squalimine” (Genaera Corporation, priority 1995, dated 2005).

The nature of assay [1]: Arterial pressure in catheterized rat. The format is in vivo. The procedure:
A 200-g rat was catheterized in the right carotid artery, and the compound was introduced over a ten-second period to a total dosage of 5 mg/kg. Within 30 seconds, the mean arterial pressure had fallen from about 100 mm Hg to about 70 mm Hg, with a marked reduction in pulse pressure from about 40 mm to about 10 mm. […] If cardiac output was basically unaffected, reduction in blood pressure would have resulted principally from a reduction in system resistance.
At that time, 40 μg of noradrenaline was introduced.

The test system of assay [2] is human umbilical venous endothelial cells. Put plainly: LPS/TNF-α-induced neutrophil adherence to endothelial cells. It is filed as cell-based. The settings on record: squalamine 10 μg, 1.0 μg or 0.1 μg; three subjects. Here is the method: To determine if squalamine inhibited this particular endothelial cell function, standard adhesion assays were performed as outlined in Gamble et al., J. Imm. Methods 109, 1988, 175-184. […] In these experiments, approximately 2×10^5 human umbilical venous cells (passage 2-6) were plated per well. The cells were grown in serum-free media overnight. For induction, either TNF-α (40 ng/ml) was added to endothelial cells for 6 hours prior to adding neutrophils or LPS (100 ng/ml) was added for 4-6 hours. […] After activation of the endothelial cells, approximately 50×10^6 neutrophils were added per well. The plates were gently rocked for 30 minutes at room temperature, followed by removal of the media and washing in serum-free media three times and then photographing of each well. Experiments to test the effects of squalamine were performed by adding squalamine at 10 μg, 1.0 μg, or 0.1 μg at the time of adding LPS or TNF-α. A second repeat dose of squalamine was added at the time of adding neutrophils. A monoclonal Ab to ICAM-1 was a positive control.

Take `CC(CC[C@@H](OS(=O)(=O)O)C(C)C)[C@H]1CCC2C3C(CC[C@@]21C)[C@@]1(C)CC[C@H](NCCCNCCCCNCCCN)C[C@@H]1C[C@H]3O` (some centres unmarked) [Compound 1436]: in assay [1] (5 mg/kg), the Heart rate entry is given as “no significant increase in heart rate” and the “Time to fall of arterial pressure” value was at most 30 s. The “Mean arterial pressure after dosing” value in assay [1] (5 mg/kg over ten seconds, fallen from about 100 mm Hg) is listed as “about 70 mm Hg”. In addition, the “Pulse pressure after dosing” value in assay [1] (5 mg/kg, reduced from about 40 mm) is reported as “about 10 mm”.

In the case of `CC(CC[C@@H](OS(=O)(=O)O)C(C)C)[C@H]1CCC2C3C(CC[C@@]21C)[C@@]1(C)CC[C@H](NCCCNCCCCN)C[C@@H]1C[C@H]3O` (some centres unmarked) [squalamine], the “Inhibition of neutrophil adherence” value in assay [2] is “no inhibition”.
